Patent publication US8735406B2, “8-oxodihydropurine derivative” (Dainippon Sumitomo Pharma Co., Ltd., priority 2009, dated 2014)
pIC50: −log10 of the molar value. Like-named read-outs stand apart in the source and are kept apart here.

Molecular target: T1, FAAH (Rattus norvegicus, UniProt P97612)
T1 construct: Preparation of Rat Brain Membranes Preparations (FAAH Enzyme Solution); from tissue; host or cells: rat cerebrum (brain membrane preparation)
T1 sequence (P97612 1-579): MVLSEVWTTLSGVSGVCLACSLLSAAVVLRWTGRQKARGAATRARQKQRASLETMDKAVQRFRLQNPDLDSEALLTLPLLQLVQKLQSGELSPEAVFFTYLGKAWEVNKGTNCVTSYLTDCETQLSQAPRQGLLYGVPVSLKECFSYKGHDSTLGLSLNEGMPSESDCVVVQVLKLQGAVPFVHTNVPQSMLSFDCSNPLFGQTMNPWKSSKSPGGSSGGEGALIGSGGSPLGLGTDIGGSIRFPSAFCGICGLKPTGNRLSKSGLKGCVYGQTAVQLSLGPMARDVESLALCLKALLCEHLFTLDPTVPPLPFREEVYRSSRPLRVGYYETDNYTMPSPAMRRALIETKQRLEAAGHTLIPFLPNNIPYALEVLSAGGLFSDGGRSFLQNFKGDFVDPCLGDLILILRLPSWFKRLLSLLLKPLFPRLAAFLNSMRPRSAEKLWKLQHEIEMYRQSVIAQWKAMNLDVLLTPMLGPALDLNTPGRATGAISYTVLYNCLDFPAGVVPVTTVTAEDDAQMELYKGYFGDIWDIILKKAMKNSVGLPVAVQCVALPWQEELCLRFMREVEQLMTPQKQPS
Experiment: Determination of FAAH inhibitory activity in rat (rat brain membrane preparations, [3H]-anandamide hydrolysis)
Format: biochemical
Settings: rat brain membrane preparations; for pIC50: read-out: FAAH Inhibition IC50
Procedure, shortened: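 Rat cerebrum membranes (100 μg/mL protein) preincubated 10 min at 37 °C with compound (1% DMSO) in pH 7.6 Tris buffer with 1.5% BSA. Substrate 2 nM [3H]-anandamide plus 2 μM anandamide added for 10 min at 37 °C. [3H]-ethanolamine in the aqueous phase after chloroform/methanol extraction was scintillation counted; IC50 over 0.1 nM–1 μM.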

[1] = at 100 nM, read-out: FAAH Inhibition Inhibition Rate at 100 nM
[2] = 100 nM test substance, read-out: FAAH Inhibition, Inhibition Rate at 100 nM

CCCn1c(=O)n(C(=O)N2CC(c3ccc(F)cc3)C2)c2cnc(COC)nc21 [Example 659, 7-{[3-(4-Fluorophenyl)azetidin-1-yl]carbonyl}-2-(methoxymethyl)-9-propyl-7,9-dihydro-8H-purine-8-one]
inhibition at 0.1 µM [1]: 112% | pIC50: 8.22

Cc1ccc(-c2ncc3c(n2)n(C)c(=O)n3C(=O)N2CCCC2)cc1 [Example 171, 9-Methyl-2-(4-methylphenyl)-7-(pyrrolidin-1-ylcarbonyl)-7,9-dihydro-8H-purine-8-one]
inhibition at 0.1 µM [2]: 102% | pIC50 (test substance 0.1 nM to 1 μM): 7.72

CCCc1ncc2c(n1)n(C)c(=O)n2C(=O)N(C)CCc1ccc(Cl)cc1 [Example 154, N-[2-(4-Chlorophenyl)ethyl]-N,9-dimethyl-8-oxo-2-propyl-8,9-dihydro-7H-purine-7-carboxamide]
inhibition at 0.1 µM [2]: 101% | pIC50 (test substance 0.1 nM to 1 μM): 8.70

COc1ccc(-c2ncc3c(n2)n(C)c(=O)n3C(=O)N2CCCC2)cc1 [compound 174]
inhibition at 0.1 µM [2]: 102% | pIC50 (test substance 0.1 nM to 1 μM): 8.22

COCc1ncc2c(n1)n(C)c(=O)n2C(=O)N1CC(c2cccc(Cl)c2)C1 [compound 447]
inhibition at 0.1 µM [2]: 131% | pIC50 (test substance 0.1 nM to 1 μM): 9.00

Cn1c(=O)n(C(=O)N2CCCC2)c2cnc(-c3cccnc3)nc21 [Example 205, 9-Methyl-2-(pyridin-3-yl)-7-(pyrrolidin-1-ylcarbonyl)-7,9-dihydro-8H-purine-8-one]
inhibition at 0.1 µM [2]: 98% | pIC50 (test substance 0.1 nM to 1 μM): 8.30

CC(C)c1ccc(CCc2ncc3c(n2)n(C(=O)N(C)C)c(=O)n3C)cc1 [compound 502]
inhibition at 0.1 µM [2]: 104% | pIC50 (test substance 0.1 nM to 1 μM): 8.00

COCc1ncc2c(n1)n(C)c(=O)n2C(=O)N1CC[C@@H](Oc2cccc(C)c2)C1 [Example 475]
inhibition at 0.1 µM [2]: 46%

CCN(C)C(=O)n1c(=O)n(C)c2nc(Cc3ccc(OC)cc3)ncc21 [Example 280, N-Ethyl-2-(4-methoxybenzyl)-N,9-dimethyl-8-oxo-8,9-dihydro-7H-purine-7-carboxamide]
inhibition at 0.1 µM [2]: 105% | pIC50 (test substance 0.1 nM to 1 μM): 7.96

CCn1c(=O)n(C(=O)N2CCC2)c2nc(CCc3ccc(F)cc3)ncc21 [Example 651, 9-(Azetidin-1-ylcarbonyl)-7-ethyl-2-[2-(4-fluorophenyl)ethyl]-7,9-dihydro-8H-purine-8-one]
inhibition at 0.1 µM [1]: 100% | pIC50: 8.05

COc1cccc(-c2ncc3c(n2)n(C)c(=O)n3C(=O)N2CCN(CCC3CCCCC3)CC2)c1 [Example 100, 7-{[4-(2-Cyclohexylethyl)piperazin-1-yl]carbonyl}-2-(3-methoxyphenyl)-9-methyl-7,9-dihydro-8H-purine-8-one]
inhibition at 0.1 µM [2]: 100% | pIC50 (test substance 0.1 nM to 1 μM): 8.05

CN(C)C(=O)n1c(=O)n(C)c2cnc(CCc3c(F)cccc3F)nc21 [compound 551]
inhibition at 0.1 µM [2]: 40% | pIC50 (test substance 0.1 nM to 1 μM): 6.98

Cn1c(=O)n(C(=O)N2CCCC2)c2cnc(-c3ccc(C#N)cc3)nc21 [compound 181]
inhibition at 0.1 µM [2]: 101% | pIC50 (test substance 0.1 nM to 1 μM): 8.40

CN(C)C(=O)n1c(=O)n(C)c2cnc(CCc3cccc(Cl)c3)nc21 [compound 520]
inhibition at 0.1 µM [2]: 96% | pIC50 (test substance 0.1 nM to 1 μM): 8.40

COCCCc1ncc2c(n1)n(C)c(=O)n2C(=O)N1CC(c2cccc(C(F)(F)F)c2)C1 [Example 386]
inhibition at 0.1 µM [2]: 93% | pIC50 (test substance 0.1 nM to 1 μM): 8.15

Cn1c(=O)n(C(=O)N2CCCC2)c2nc(-c3cccc(F)c3)ncc21 [Example 226, 2-(3-Fluorophenyl)-7-methyl-9-(pyrrolidin-1-ylcarbonyl)-7,9-dihydro-8H-purine-8-one]
inhibition at 0.1 µM [2]: 99% | pIC50 (test substance 0.1 nM to 1 μM): 7.57
